In assay [1] the test system is Escherichia coli. The experiment in a line: Antimicrobial activity against recombinant Escherichia coli DH5-alpha expressing pBAD [aph(3')-2] in the presence of arabinose. The class given is functional. The following applies: DH5alpha.
The subject of assay [2] is Escherichia coli. The experiment in a line: Antimicrobial activity against recombinant Escherichia coli DH5alpha expressing pBAD. It is filed as functional.
Assay [3] relates to Stenotrophomonas maltophilia. Briefly: Antimicrobial activity against Stenotrophomonas maltophilia K279a (aph FS) mutant. The class given is functional.
The subject of assay [4] is Stenotrophomonas maltophilia. Briefly: Antimicrobial activity against Stenotrophomonas maltophilia K279a mutant. It is filed as functional.
Assay [5] deals with Escherichia coli. The experiment in a line: Antimicrobial activity against recombinant Escherichia coli DH5-alpha expressing pBAD in the presence of arabinose. The class given is functional. The following applies: DH5alpha.
The test system of assay [6] is Escherichia coli. Briefly: Antimicrobial activity against recombinant Escherichia coli DHalpha expressing pBAD [aph(3')-2]. It is filed as functional. The following applies: DH5alpha.
Assay [7] deals with Escherichia coli. The following applies: DH5alpha.
The test system of assay [8] is Escherichia coli. The following applies: DH5alpha. This is another data set of the same source.
The test system of assay [9] is Escherichia coli. As to conditions: DH5alpha. This is another data set of the same source.
The test system of assay [10] is Escherichia coli. The following applies: DH5alpha. The source holds these as a separate data set.

In brackets after ≈: the same amount, converted by molar mass.

As for `NCC[C@H](O)C(=O)N[C@@H]1C[C@H](N)[C@@H](O[C@H]2O[C@H](CN)[C@@H](O)[C@H](O)[C@H]2O)[C@H](O)[C@H]1O[C@H]1O[C@H](CO)[C@@H](O)[C@H](N)[C@H]1O` [AMIKACIN], the MIC in [1] was 4 µg/mL; in [2], 0.5 µg/mL; in [3] it was 64 µg/mL (≈ 109 µM); in [4], 64 µg/mL (≈ 109 µM); in assay [5] it was 0.5 µg/mL; in [6], 0.5 µg/mL.

Consider `NC[C@@H]1O[C@H](O[C@H]2[C@@H](O)[C@H](O[C@@H]3[C@@H](O)[C@H](N)C[C@H](N)[C@H]3O[C@H]3O[C@H](CN)[C@@H](O)[C@H](O)[C@H]3N)O[C@@H]2CO)[C@H](N)[C@@H](O)[C@@H]1O` [FRAMYCETIN], for which the minimum inhibitory concentration (MIC) in assay [1] was determined as 64 µg/mL; in assay [2] it was 0.5 µg/mL; in assay [3] it was 64 µg/mL (≈ 104 µM); in assay [4], 512 µg/mL (≈ 833 µM); in [5] it was 0.5 µg/mL; in assay [6], 0.5 µg/mL.

Take `NC[C@H]1O[C@H](O[C@H]2[C@H](O)[C@@H](O[C@H]3O[C@H](CO)[C@@H](O)[C@H](N)[C@H]3O)[C@H](N)C[C@@H]2N)[C@H](O)[C@@H](O)[C@@H]1O` [KANAMYCIN]: the minimum inhibitory concentration (MIC) stood at 8 µg/mL (≈ 16.5 µM) in assay [3] and 256 µg/mL (≈ 528 µM) in assay [4].

Take `NC[C@@H]1O[C@H](O[C@H]2[C@@H](O)[C@H](O[C@@H]3[C@@H](O)[C@H](N)C[C@H](N)[C@H]3O[C@H]3O[C@H](CO)[C@@H](O)C[C@H]3N)O[C@@H]2CO)[C@H](N)[C@@H](O)[C@@H]1O[C@H]1O[C@H](CO)[C@@H](O)[C@H](O)[C@@H]1O` [LIVIDOMYCIN]: the MIC in assay [1] stood at 8 µg/mL; in assay [2], 4 µg/mL; in assay [3], 128 µg/mL (≈ 168 µM); in assay [4] it was 128 µg/mL (≈ 168 µM); in assay [5] it was 4 µg/mL; in assay [6] it was 4 µg/mL.

As to `NC[C@@H]1O[C@H](O[C@H]2[C@@H](O)[C@H](O[C@@H]3[C@@H](O)[C@H](N)C[C@H](N)[C@H]3O[C@H]3O[C@H](CO)[C@@H](O)[C@H](O)[C@H]3N)O[C@@H]2CO)[C@H](N)[C@@H](O)[C@@H]1O` [PAROMOMYCIN], the MIC in [1] is 128 µg/mL; in assay [2], 0.25 µg/mL; in assay [3], 64 µg/mL (≈ 104 µM); in [4] it was 256 µg/mL (≈ 416 µM); in [5], 0.25 µg/mL; in [6], 0.25 µg/mL.

For the compound `CN[C@@H]1[C@@H](O)[C@@H](O[C@@H]2[C@@H](O)[C@H](O[C@H]3OC(CN)=CC[C@H]3N)[C@@H](N)C[C@H]2N)OC[C@]1(C)O` [SISOMICIN], the MIC in [1] is 0.125 µg/mL; in assay [2] it was 0.125 µg/mL; in [3], 8 µg/mL (≈ 17.9 µM); in assay [4] it was 8 µg/mL (≈ 17.9 µM); in [5], 0.125 µg/mL; in [6], 0.125 µg/mL.

`NC[C@H]1O[C@H](O[C@H]2[C@H](O)[C@@H](O[C@H]3O[C@H](CO)[C@@H](O)[C@H](N)[C@H]3O)[C@H](N)C[C@@H]2N)[C@H](N)C[C@@H]1O` [TOBRAMYCIN]: the MIC in assay [1] turned out to be 8 µg/mL; in [2], 0.5 µg/mL; in assay [3] it was 32 µg/mL (≈ 68.4 µM); in [4], 32 µg/mL (≈ 68.4 µM); in assay [5] it was 0.5 µg/mL; in assay [6] it was 0.5 µg/mL.

In the case of GENTAMICIN, the MIC was found to be 16 µg/mL in assay [3]; 1 µg/mL in assay [7]; 16 µg/mL in assay [4]; 1 µg/mL in assay [8]; 1 µg/mL in assay [9]; 1 µg/mL in assay [10].

As for butirosin, the MIC was 1 µg/mL in assay [3]; 0.125 µg/mL in [7]; 8 µg/mL in assay [4]; 0.125 µg/mL in [8]; 4 µg/mL in assay [9]; 0.125 µg/mL in assay [10].

These data come from ChEMBL document CHEMBL1142159, “Aph(3')-IIc, an aminoglycoside resistance determinant from Stenotrophomonas maltophilia” (2007).
